Test results as given in the NIST ThermoML archive (doi:10.1016/j.jct.2009.04.002).
Where “and” joins values, the source holds several entries; their conditions need not be identical. Identical values can stand only once.

Settings: Liquid

CC(C)CCCCCCCOC(=O)c1ccccc1C(=O)OCCCCCCCC(C)C
Settings | mass density, Vibrating tube method | viscosity, Falling or rolling sphere viscometry
333.15 K, 10000 kPa | 944.8 kg/m3 and 945.3 kg/m3 | –
333.15 K, 20000 kPa | 951 kg/m3 and 951.5 kg/m3 and 950.9 kg/m3 | 23.5 mPa·s and 22.4 mPa·s and 23.2 mPa·s
333.15 K, 30000 kPa | 956.7 kg/m3 and 957.1 kg/m3 and 956.6 kg/m3 | 28.2 mPa·s and 26.8 mPa·s and 27.8 mPa·s
333.15 K, 40000 kPa | 962.1 kg/m3 and 962.5 kg/m3 and 962 kg/m3 | 33.7 mPa·s and 31.9 mPa·s and 33.1 mPa·s
333.15 K, 50000 kPa | 967.2 kg/m3 and 967.6 kg/m3 and 967.1 kg/m3 | 40 mPa·s and 37.8 mPa·s and 39.3 mPa·s
333.15 K, 60000 kPa | 972.1 kg/m3 and 972.5 kg/m3 and 972 kg/m3 | 47.5 mPa·s and 44.5 mPa·s and 46.6 mPa·s
333.15 K, 70000 kPa | 976.7 kg/m3 and 977.1 kg/m3 and 976.6 kg/m3 | –
348.15 K, 100 kPa | 927.9 kg/m3 and 928.3 kg/m3 and 927.7 kg/m3 | –
348.15 K, 1000 kPa | 928.5 kg/m3 and 929 kg/m3 and 928.4 kg/m3 | –
348.15 K, 5000 kPa | 931.4 kg/m3 and 931.8 kg/m3 and 931.2 kg/m3 | –
348.15 K, 10000 kPa | 934.8 kg/m3 and 935.3 kg/m3 and 934.7 kg/m3 | –
348.15 K, 20000 kPa | 941.3 kg/m3 and 941.8 kg/m3 and 941.2 kg/m3 | –
348.15 K, 30000 kPa | 947.3 kg/m3 and 947.8 kg/m3 | –
348.15 K, 40000 kPa | 953 kg/m3 and 953.5 kg/m3 and 952.9 kg/m3 | –
348.15 K, 50000 kPa | 958.4 kg/m3 and 958.9 kg/m3 | –
348.15 K, 60000 kPa | 963.6 kg/m3 and 964 kg/m3 and 963.5 kg/m3 | –
348.15 K, 70000 kPa | 968.4 kg/m3 and 968.8 kg/m3 and 968.3 kg/m3 | –
353.15 K, 100 kPa | – | 8.42 mPa·s and 8.04 mPa·s and 8.35 mPa·s
353.15 K, 1000 kPa | – | 8.54 mPa·s and 8.16 mPa·s and 8.48 mPa·s
353.15 K, 5000 kPa | – | 9.14 mPa·s and 8.7 mPa·s and 9.06 mPa·s
353.15 K, 10000 kPa | – | 9.92 mPa·s and 9.43 mPa·s and 9.83 mPa·s
353.15 K, 20000 kPa | – | 11.7 mPa·s and 11 mPa·s and 11.5 mPa·s
353.15 K, 30000 kPa | – | 13.7 mPa·s and 12.9 mPa·s and 13.5 mPa·s
353.15 K, 40000 kPa | – | 16 mPa·s and 15.1 mPa·s and 15.8 mPa·s
353.15 K, 50000 kPa | – | 18.5 mPa·s and 17.5 mPa·s and 18.3 mPa·s
353.15 K, 60000 kPa | – | 21.5 mPa·s and 20.3 mPa·s and 21.2 mPa·s
373.15 K, 100 kPa | 909.5 kg/m3 and 910 kg/m3 and 909.4 kg/m3 | 5.05 mPa·s and 4.8 mPa·s and 5.09 mPa·s
373.15 K, 1000 kPa | 911 kg/m3 and 911.6 kg/m3 | 5.12 mPa·s and 4.87 mPa·s and 5.16 mPa·s
373.15 K, 5000 kPa | 914.3 kg/m3 and 914.8 kg/m3 and 914.2 kg/m3 | 5.44 mPa·s and 5.17 mPa·s and 5.47 mPa·s
373.15 K, 10000 kPa | 918.1 kg/m3 and 918.6 kg/m3 and 918 kg/m3 | 5.86 mPa·s and 5.57 mPa·s and 5.89 mPa·s
373.15 K, 20000 kPa | 925.3 kg/m3 and 925.9 kg/m3 and 925.2 kg/m3 | 6.79 mPa·s and 6.44 mPa·s and 6.8 mPa·s
373.15 K, 30000 kPa | 931.9 kg/m3 and 932.5 kg/m3 | 7.83 mPa·s and 7.42 mPa·s
373.15 K, 40000 kPa | 938.1 kg/m3 and 938.7 kg/m3 | 9 mPa·s and 8.52 mPa·s and 8.98 mPa·s
373.15 K, 50000 kPa | 943.9 kg/m3 and 944.6 kg/m3 and 944 kg/m3 | 10.3 mPa·s and 9.75 mPa·s
373.15 K, 60000 kPa | 949.5 kg/m3 and 950.1 kg/m3 | 11.7 mPa·s and 11.1 mPa·s
373.15 K, 70000 kPa | 954.7 kg/m3 and 955.2 kg/m3 and 954.6 kg/m3 | –
398.15 K, 100 kPa | 892.2 kg/m3 and 892.8 kg/m3 | –
398.15 K, 1000 kPa | 892.8 kg/m3 and 893.5 kg/m3 and 892.9 kg/m3 | –
398.15 K, 5000 kPa | 896.4 kg/m3 and 896.9 kg/m3 and 896.3 kg/m3 | –
398.15 K, 10000 kPa | 900.6 kg/m3 and 901.1 kg/m3 and 900.5 kg/m3 | –
398.15 K, 20000 kPa | 908.6 kg/m3 and 909.1 kg/m3 and 908.5 kg/m3 | –
398.15 K, 30000 kPa | 915.8 kg/m3 and 916.4 kg/m3 | –
398.15 K, 40000 kPa | 922.5 kg/m3 and 923.2 kg/m3 and 922.6 kg/m3 | –
398.15 K, 50000 kPa | 928.8 kg/m3 and 929.5 kg/m3 and 928.9 kg/m3 | –
398.15 K, 60000 kPa | 934.8 kg/m3 and 935.5 kg/m3 and 934.9 kg/m3 | –
398.15 K, 70000 kPa | 940.4 kg/m3 and 941 kg/m3 | –

Settings | mass density, SVM3000 rotational viscometer | viscosity, Rotational Automated Viscometer
333.15 K | 938.7 kg/m3 and 938.3 kg/m3 | 15.79 mPa·s and 16.02 mPa·s and 15.97 mPa·s
338.15 K | 935.1 kg/m3 and 934.7 kg/m3 | 13.21 mPa·s and 13.4 mPa·s and 13.36 mPa·s
343.15 K | 931.6 kg/m3 and 931.1 kg/m3 | 11.18 mPa·s and 11.34 mPa·s and 11.31 mPa·s
348.15 K | 928 kg/m3 and 927.6 kg/m3 | 9.561 mPa·s and 9.696 mPa·s and 9.685 mPa·s
353.15 K | 924.4 kg/m3 and 924.1 kg/m3 | 8.257 mPa·s and 8.376 mPa·s and 8.37 mPa·s
358.15 K | 920.7 kg/m3 and 920.9 kg/m3 and 920.6 kg/m3 | 7.193 mPa·s and 7.3 mPa·s and 7.297 mPa·s
363.15 K | 917.2 kg/m3 and 917.4 kg/m3 and 917 kg/m3 | 6.329 mPa·s and 6.414 mPa·s and 6.412 mPa·s
368.15 K | 913.7 kg/m3 and 913.9 kg/m3 and 913.5 kg/m3 | 5.602 mPa·s and 5.677 mPa·s and 5.675 mPa·s
373.15 K | 910.3 kg/m3 and 910.5 kg/m3 and 910 kg/m3 | 4.989 mPa·s and 5.059 mPa·s and 5.057 mPa·s
